The target of the assay is T1, Human Vanilloid Receptor 1 (Homo sapiens, UniProt Q8NER1).
T1 construct: expressed in transfected cells; host or cells: HEK 293
Description: Human VR1 functional assay using FLIPR, Protocol 1. It counts as cell-based. The conditions noted are these: for inhibition at 9 µM: HEK293, 9 uM, inhibition of capsaicin (EC80)-induced calcium response, HEK 293 cells transfected with hVR1, read-out: h % I (9 uM); for IC50: decreased capsaicin (EC80)-induced calcium response, HEK 293 hVR1, read-out: h IC50; for Emax at 12.2 µM: HEK293, 12.2 uM, test compound-induced calcium response (agonist mode), HEK 293 hVR1, read-out: % maximal reponse to capsaicin (12.2 uM); for EC50: test compound-induced calcium response at the 5-minute time point, HEK 293 hVR1, read-out: h EC50. As to the method: The functional activity of the test compounds was determined by measuring changes in intracellular calcium concentration using FLIPR™ Calcium-3 Assay Kit and FLIPR™ technology.
HEK 293 cells transfected with Human Vanilloid Receptor 1 were maintained at 37° C. and 5% CO2 in: Dulbecco's Modification of Eagle's Medium (high glucose, L-glutamine, pyridoxine HCl, No sodium pyruvate), 10% FBS, 1× Penicillin-Streptomycin-Amphotericin B, 200 ug/mL zeocin. Approximately 24 hours prior to assay, 30,000 cells/well were plated onto a 384-well black clear bottom poly-D-lysine-coated assay plate with a well volume of 25 µL using Titertek Multidrop.
On the day of the assay, the medium was dumped and 50 μL 1× dye were loaded using Multidrop. Plates were incubated with dye at 37° C. for 30 minutes followed by 30 minutes incubation at room temperature. Then the plates were assayed by FLIPR™ with 2 additions: 12.5 μL test compound with 5 minutes data acquisition followed by 12.5 μL capsaicin at the EC80 concentration.
The EC50 values of test compounds were calculated based on a test compound-induced calcium response at the 5-minute time point. The IC50 values of compounds were calculated based on a decreased capsaicin-induced calcium response in the presence of test compound.

As a reminder, the IC50 is the concentration that inhibits the measured activity by half. The term EC50 denotes the midpoint of the concentration-response curve.

T1 sequence (Q8NER1 whole entry): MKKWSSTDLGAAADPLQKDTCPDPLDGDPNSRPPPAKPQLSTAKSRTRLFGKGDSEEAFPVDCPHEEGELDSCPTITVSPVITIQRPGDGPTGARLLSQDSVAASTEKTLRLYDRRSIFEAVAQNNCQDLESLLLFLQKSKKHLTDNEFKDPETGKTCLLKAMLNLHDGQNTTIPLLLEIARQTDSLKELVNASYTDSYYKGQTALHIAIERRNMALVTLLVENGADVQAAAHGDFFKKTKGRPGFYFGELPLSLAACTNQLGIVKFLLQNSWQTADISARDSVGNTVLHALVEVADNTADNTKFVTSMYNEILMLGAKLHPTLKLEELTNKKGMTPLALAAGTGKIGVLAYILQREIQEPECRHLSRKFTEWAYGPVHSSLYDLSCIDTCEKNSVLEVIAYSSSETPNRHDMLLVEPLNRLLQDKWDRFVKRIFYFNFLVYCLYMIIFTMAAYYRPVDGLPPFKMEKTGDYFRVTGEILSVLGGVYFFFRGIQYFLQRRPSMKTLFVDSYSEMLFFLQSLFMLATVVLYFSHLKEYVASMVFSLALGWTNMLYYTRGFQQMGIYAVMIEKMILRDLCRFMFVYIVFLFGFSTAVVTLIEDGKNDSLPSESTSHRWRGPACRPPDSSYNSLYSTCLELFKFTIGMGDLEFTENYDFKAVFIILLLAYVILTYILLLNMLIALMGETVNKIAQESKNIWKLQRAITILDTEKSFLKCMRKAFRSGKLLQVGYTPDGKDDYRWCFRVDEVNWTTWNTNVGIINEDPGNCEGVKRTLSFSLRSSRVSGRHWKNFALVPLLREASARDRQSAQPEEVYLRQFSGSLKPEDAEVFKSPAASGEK

Regarding `O=C(Nc1nsc2ccc([N+](=O)[O-])cc12)C1CCN(c2cccc(C(F)(F)F)c2)CC1` [Example 20, 1-(3-Trifluoromethyl-phenyl)-piperidine-4-carboxylic acid (5-nitro-benzo[d]isothiazol-3-yl)-amide], the inhibition at 9 µM was 2.5%. On to `O=C(Nc1ccc2[nH]ccc2c1)C1CCN(c2cccc(C(F)(F)F)c2)CC1` [Example 22, 1-(3-Trifluoromethyl-phenyl)-piperidine-4-carboxylic acid (1H-indol-5-yl)-amide], for which the inhibition at 9 µM was 78% and the IC50 came out at 1070 nM. Consider `O=C(Nc1ccc2cc[nH]c2c1)C1CCN(c2cccc(C(F)(F)F)c2)CC1` [Example 23, 1-(3-Trifluoromethyl-phenyl)-piperidine-4-carboxylic acid (1H-indol-6-yl)-amide], for which the inhibition at 9 µM is 19%. Regarding `Cn1ncc2cc(NC(=O)C3CCN(c4cccc(C(F)(F)F)c4)CC3)ccc21` [Example 24, 1-(3-Trifluoromethyl-phenyl)-piperidine-4-carboxylic acid (1-methyl-1H-indazol-5-yl)-amide], the Emax at 12.2 µM is 68.5% and the concentration giving a half-maximal response (EC50) is 1500 nM.

With `COc1ccc(NC(=O)C2CCN(c3cccc(C(F)(F)F)c3)CC2)cn1` [Example 25, 1-(3-Trifluoromethyl-phenyl)-piperidine-4-carboxylic acid (6-methoxy-pyridin-3-yl)-amide], the Emax at 12.2 µM amounted to 74% and the EC50 was determined as 850 nM. Turning to `O=C(Nc1ccc2nc(S)sc2c1)C1CCN(c2cccc(C(F)(F)F)c2)CC1` [Example 26, 1-(3-Trifluoromethyl-phenyl)-piperidine-4-carboxylic acid (2-mercapto-benzothiazol-6-yl)-amide], the Emax at 12.2 µM was 35.5% and the 50% effective concentration (EC50) worked out at 2550 nM.

As for `O=C(Nc1ccc(O)c2ncccc12)C1CCN(c2cccc(C(F)(F)F)c2)CC1` [Example 27, 1-(3-Trifluoromethyl-phenyl)-piperidine-4-carboxylic acid (8-hydroxy-quinolin-5-yl)-amide], the inhibition at 9 µM was found to be 13%. Regarding `O=C(Nc1ccc2c(c1)OCCCO2)C1CCN(c2cccc(C(F)(F)F)c2)CC1` [Example 28, 1-(3-Trifluoromethyl-phenyl)-piperidine-4-carboxylic acid (3,4-dihydro-2H-benzo[b][1,4]dioxepin-7-yl)-amide], the inhibition at 9 µM was 77% and the IC50 was 2180 nM. As for `CC(=O)N1CCc2cc(NC(=O)C3CCN(c4cccc(C(F)(F)F)c4)CC3)ccc21` [Example 29, 1-(3-Trifluoromethyl-phenyl)-piperidine-4-carboxylic acid (1-acetyl-2,3-dihydro-1H-indol-5-yl)-amide], the inhibition at 9 µM was determined as 13%. For `O=C(Nc1cccc2cc[nH]c12)C1CCN(c2cccc(C(F)(F)F)c2)CC1` [Example 30, 1-(3-Trifluoromethyl-phenyl)-piperidine-4-carboxylic acid (1H-indol-7-yl)-amide], the Emax at 12.2 µM came to 40% and the EC50 amounted to 5310 nM. `O=C(Nc1ccc2c(=O)[nH][nH]c(=O)c2c1)C1CCN(c2cccc(C(F)(F)F)c2)CC1` [Example 31, 1-(3-Trifluoromethyl-phenyl)-piperidine-4-carboxylic acid (1,4-dioxo-1,2,3,4-tetrahydro-phthalazin-6-yl)-amide]: the inhibition at 9 µM is 16%.

Take `O=C(Nc1ccc(Oc2ccccc2)nc1)C1CCN(c2cccc(C(F)(F)F)c2)CC1` [Example 32, 1-(3-Trifluoromethyl-phenyl)-piperidine-4-carboxylic acid (6-phenoxy-pyridin-3-yl)-amide]: the inhibition at 9 µM stood at 13%.

Take `CN(C)c1nc(NC(=O)C2CCN(c3cccc(C(F)(F)F)c3)CC2)ncc1-c1ccccc1` [Example 35, 1-(3-Trifluoromethyl-phenyl)-piperidine-4-carboxylic acid (4-dimethylamino-5-phenyl-pyrimidin-2-yl)-amide]: the inhibition at 9 µM came to 14%. Consider `CCOC(=O)c1c(C)nn(-c2ccc(NC(=O)C3CCN(c4cccc(C(F)(F)F)c4)CC3)cn2)c1C` [Example 36, 3,5-Dimethyl-1-(5-{[1-(3-trifluoromethyl-phenyl)-piperidine-4-carbonyl]-amino}-pyridin-2-yl)-1H-pyrazole-4-carboxylic acid ethyl ester], for which the inhibition at 9 µM came to 14%.

`CC(=O)N1c2cc(NC(=O)C3CCN(c4cccc(C(F)(F)F)c4)CC3)ccc2CC1C` (stereo not drawn) [Example 37, 1-(3-Trifluoromethyl-phenyl)-piperidine-4-carboxylic acid (1-acetyl-2-methyl-2,3-dihydro-1H-indol-6-yl)-amide]: the inhibition at 9 µM turned out to be 46.5% and the half-maximal inhibitory concentration (IC50) is 2640 nM. For the compound `O=C1Cc2ccc(NC(=O)C3CCN(c4cccc(C(F)(F)F)c4)CC3)cc2N1` [Example 38, 1-(3-Trifluoromethyl-phenyl)-piperidine-4-carboxylic acid (2-oxo-2,3-dihydro-1H-indol-6-yl)-amide], the Emax at 12.2 µM turned out to be 62.8% and the EC50 amounted to 320 nM.

With `O=C(Nc1ncnc2ccccc12)C1CCN(c2cccc(C(F)(F)F)c2)CC1` [Example 39, 1-(3-Trifluoromethyl-phenyl)-piperidine-4-carboxylic acid quinazolin-4-ylamide], the inhibition at 9 µM is 3.5%. For `Cc1nc2ccc(NC(=O)C3CCN(c4cccc(C(F)(F)F)c4)CC3)nc2nc1C` [Example 40, 1-(3-Trifluoromethyl-phenyl)-piperidine-4-carboxylic acid (2,3-dimethyl-pyrido[2,3-b]pyrazin-6-yl)-amide], the inhibition at 9 µM was found to be 11.5%. Consider `Cc1cc(C)c2c(NC(=O)C3CCN(c4cccc(C(F)(F)F)c4)CC3)csc2n1` [Example 41, 1-(3-Trifluoromethyl-phenyl)-piperidine-4-carboxylic acid (4,6-dimethyl-thieno[2,3-b]pyridin-3-yl)-amide], for which the inhibition at 9 µM was 12%.

On to `COc1ccc(-c2cnc(NC(=O)C3CCN(c4cccc(C(F)(F)F)c4)CC3)nc2C)cc1OC` [Example 42, 1-(3-Trifluoromethyl-phenyl)-piperidine-4-carboxylic acid [5-(3,4-dimethoxy-phenyl)-4-methyl-pyrimidin-2-yl]-amide], for which the inhibition at 9 µM was determined as 11%. Turning to `Cc1cc(Oc2ccccc2)nc(NC(=O)C2CCN(c3cccc(C(F)(F)F)c3)CC2)n1` [Example 43, 1-(3-Trifluoromethyl-phenyl)-piperidine-4-carboxylic acid (4-methyl-6-phenoxy-pyrimidin-2-yl)-amide], the inhibition at 9 µM stood at 10%. Same read-out and setting: as for `O=C1COc2cc(NC(=O)C3CCN(c4cccc(C(F)(F)F)c4)CC3)ccc2N1` [Example 44, 1-(3-Trifluoromethyl-phenyl)-piperidine-4-carboxylic acid (3-oxo-3,4-dihydro-2H-benzo[1,4]oxazin-7-yl)-amide], the figure is 33%; as for `CNc1ccc2ncncc2c1NC(=O)C1CCN(c2cccc(C(F)(F)F)c2)CC1` [Example 45, 1-(3-Trifluoromethyl-phenyl)-piperidine-4-carboxylic acid (6-methylamino-quinazolin-5-yl)-amide], 5%. `CC(=O)N1CCc2c(NC(=O)C3CCN(c4cccc(C(F)(F)F)c4)CC3)cccc21` [Example 46, 1-(3-Trifluoromethyl-phenyl)-piperidine-4-carboxylic acid (1-acetyl-2,3-dihydro-1H-indol-4-yl)-amide]: the inhibition at 9 µM was 61.4% and the IC50 stood at 1200 nM. Consider `O=C(Nc1cc(-c2ccco2)n[nH]1)C1CCN(c2cccc(C(F)(F)F)c2)CC1` [Example 47, 1-(3-Trifluoromethyl-phenyl)-piperidine-4-carboxylic acid (5-furan-2-yl-2H-pyrazol-3-yl)-amide], for which the inhibition at 9 µM is 12%. Regarding `O=C(Nc1cc(-c2cccs2)n[nH]1)C1CCN(c2cccc(C(F)(F)F)c2)CC1` [Example 48, 1-(3-Trifluoromethyl-phenyl)-piperidine-4-carboxylic acid (5-thiophen-2-yl-2H-pyrazol-3-yl)-amide], the inhibition at 9 µM was 9.5%. Regarding `Cc1cc(Cl)nnc1NC(=O)C1CCN(c2cccc(C(F)(F)F)c2)CC1` [Example 51, 1-(3-Trifluoromethyl-phenyl)-piperidine-4-carboxylic acid (6-chloro-4-methyl-pyridazin-3-yl)-amide], the inhibition at 9 µM was determined as 8%. Regarding `Cn1cnc2c(N3CCC(C(=O)Nc4cccc5[nH]ccc45)CC3)ncnc21` [Example 54, 1-(9-Methyl-9H-purin-6-yl)-piperidine-4-carboxylic acid (1H-indol-4-yl)-amide], the inhibition at 9 µM stood at 16%. Take `O=C1COc2ccc(NC(=O)C3CCN(c4ccccc4)CC3)cc2N1` [Example 139, 1-Phenyl-piperidine-4-carboxylic acid (3-oxo-3,4-dihydro-2H-benzo[1,4]oxazin-6-yl)-amide]: the inhibition at 9 µM was determined as 85% and the IC50 stood at 1810 nM.

Source of the values: patent publication US20060116368A1, “4-Piperidinecarboxamide modulators of vanilloid VR1 receptor” (priority 2004, published 2006).
